# According to patent publication US20260226034A1 (The Rockefeller University, priority 2023, published 2026):
# Molecular target: NSP14 (Severe acute respiratory syndrome coronavirus 2, UniProt P0DTD1)
# Assay: NSP14 MTase inhibition assay at 37° C. (MTase-Glo SAH detection)
# Assay type: biochemical, SARS-CoV-2
# Settings: 0.3 nM NSP14, 2.5 μM SAM, 2.5 μM GpppA RNA, 45 min at 37° C.; read-out: Nsp14 Mtase Inh. IC50
row,Structure (SMILES),IC50 [nM]
1,Cc1c(S(=O)(=O)c2ccc3[nH]ncc3c2)cc(C(=O)N[C@@H]2CCN(c3cc(C(F)(F)F)ncn3)C2)n1C [A.94],0.15
2,Cc1c(S(=O)(=O)c2ccc3[nH]ncc3c2)cc(C(=O)N[C@@H]2CCN(c3ncc(Cl)cn3)C2)n1C [A.42],0.42
3,COc1ncc(N2CC[C@@H](NC(=O)c3cc(S(=O)(=O)c4ccc5[nH]ncc5c4)c(C)n3C)C2)cn1 [A.124],0.23
4,Cc1c(S(=O)(=O)c2ccc3[nH]ncc3c2)cc(C(=O)N[C@@H]2CCN(c3ccc(C#N)c(C#N)c3)C2)n1C [A.108],< 0.15
5,Cc1c(S(=O)(=O)c2ccc3[nH]ncc3c2)cc(C(=O)N[C@@H]2CCN(c3ncncc3C#N)C2)n1C [A.121],0.3
6,Cc1c(S(=O)(=O)c2cc(F)c3[nH]ncc3c2)cc(C(=O)N[C@@H]2CCN(c3ncc(F)cn3)C2)n1C [A.40],< 0.15
7,Cc1c(S(=O)(=O)c2ccc3[nH]ncc3c2)cc(C(=O)NC2CN(c3ncc(F)cn3)C2)n1C [A.36],2.2
8,Cc1c(S(=O)(=O)c2ccc3[nH]ncc3c2)cc(C(=O)N[C@@H]2CCN(c3ncc(F)cc3F)C2)n1C [A.54],< 0.15
9,Cc1c(S(=O)(=O)c2cc(Cl)c3[nH]ncc3c2)cc(C(=O)N[C@@H]2CCN(c3ccnnc3)C2)n1C [A.119],0.37
10,Cc1c(S(=O)(=O)c2ccc3[nH]ncc3c2)cc(C(=O)N[C@@H]2CCN(c3nccc(C(F)F)n3)C2)n1C [A.122],0.3
11,Cc1c(S(=O)(=O)c2ccc3[nH]ncc3c2)cc(C(=O)N[C@H]2CN(c3ncc(F)cn3)CC23CC3)n1C [A.62],0.41
12,COCCn1c(C(=O)N[C@@H]2CCN(c3ncc(F)cn3)C2)cc(S(=O)(=O)c2ccc3[nH]ncc3c2)c1C [A.91],0.17
13,Cc1nc(N2CC[C@@H](NC(=O)c3cc(S(=O)(=O)c4ccc5[nH]ncc5c4)c(C)n3C)C2)nc(C)c1F [A.75],0.51
14,COc1ccc(S(=O)(=O)c2cc(C(=O)NCc3cccc4cnn(C)c34)n(C)c2C)cn1 [A.28],119
15,Cc1c(S(=O)(=O)c2ccc(C(N)=O)cc2)cc(C(=O)NCc2cccc3cnn(C)c23)n1C [A.21],53
16,Cc1c(S(=O)(=O)c2ccc3[nH]ncc3c2)cc(C(=O)N[C@@H]2CCN(c3ccn4nccc4c3)C2)n1C [A.60],0.28
17,Cc1c(S(=O)(=O)c2ccc(C#N)cc2)cc(C(=O)NCc2cccc3cnn(C)c23)n1C [A.24],89
18,Cc1c(S(=O)(=O)c2ccc3[nH]ncc3c2)cc(C(=O)N[C@@H]2CCN(c3nccnc3C#N)C2)n1C [A.120],0.26
19,COc1cnc(N2CC[C@@H](NC(=O)c3cc(S(=O)(=O)c4ccc5[nH]ncc5c4)c(C)n3C)C2)cn1 [A.113],< 0.15
20,"Cc1c(S(=O)(=O)c2ccc3[nH]ncc3c2)cc(C(=O)NC2(CO)CCN(c3ncc(F)cn3)C2)n1C (single isomer, unassigned) [A.117, 4-((1H-indazol-5-yl)sulfonyl)-N-(1-(5-fluoropyrimidin-2-yl)-3-(hydroxymethyl)pyrrolidin-3-yl)-1,5-dimethyl-1H-pyrrole-2-carboxamide]",2.8
21,Cc1c(S(=O)(=O)c2ccc3[nH]ncc3c2)cc(C(=O)NC2CCN(c3ncc(F)cn3)CC2)n1C [A.35],0.56
22,"Cc1c(S(=O)(=O)c2cccc(C#N)c2)cc(C(=O)NCc2cccc3cnn(C)c23)n1C [A.6, 4-(3-cyanophenyl)sulfonyl-1,5-dimethyl-N-[(1-methylindazol-7-yl)methyl]pyrrole-2-carboxamide]",1.7
23,Cc1c(S(=O)(=O)c2ccc3[nH]ncc3c2)cc(C(=O)NCc2cccc3cnn(C)c23)n1C [A.3],0.35
24,Cc1c(S(=O)(=O)c2ccc3[nH]ncc3c2)cc(C(=O)NCc2cccn3nccc23)n1C [A.13],7.2
25,"COCC1(NC(=O)c2cc(S(=O)(=O)c3ccc4[nH]ncc4c3)c(C)n2C)CCN(c2ncc(F)cn2)C1 (single isomer, unassigned) [A.115, 4-((1H-indazol-5-yl)sulfonyl)-N-(1-(5-fluoropyrimidin-2-yl)-3-(methoxymethyl)pyrrolidin-3-yl)-1,5-dimethyl-1H-pyrrole-2-carboxamide]",37
26,"Cc1c(S(=O)(=O)c2ccc3[nH]ncc3c2)cc(C(=O)N[C@@H]2CCN(c3ncc(F)cn3)C2)n1C [A.34, N-[(3R)-1-(5-fluoropyrimidin-2-yl)pyrrolidin-3-yl]-4-(1H-indazol-5-ylsulfonyl)-1,5-dimethyl-pyrrole-2-carboxamide]",0.17
27,Cc1c(S(=O)(=O)c2ccc3[nH]ncc3c2)cc(C(=O)N[C@@H]2CCN(c3ccc(F)nn3)C2)n1C [A.53],0.36
28,Cc1c(S(=O)(=O)c2ccc3[nH]ncc3c2)cc(C(=O)N[C@@H]2CCN(c3cccc(C#N)c3)C2)n1C [A.84],< 0.15
29,Cc1c(S(=O)(=O)c2ccc3c(cnn3C)c2)cc(C(=O)NCc2c(F)ccc3occc23)n1C [A.19],21
30,Cc1c(S(=O)(=O)c2ccc3[nH]ncc3c2)cc(C(=O)N[C@@H]2CCN(c3ccc(C(F)(F)F)nn3)C2)n1C [A.76],0.44

# Same assay, conditions: 37° C., 0.3 nM NSP14, 2.5 μM SAM, 2.5 μM GpppA RNA; read-out: Nsp14 Mtase Inh. IC50
row,Structure (SMILES),IC50 [nM]
1,Cc1c(S(=O)(=O)c2ccc3[nH]ncc3c2)cc(C(=O)NCc2c[nH]c3ncccc23)n1C [B.132],0.6
2,Cc1c(S(=O)(=O)c2ccc3[nH]nc(F)c3c2)cc(C(=O)NCc2c[nH]c(=O)c3cccnc23)n1C [B.175],3.3
3,Cc1c(S(=O)(=O)c2ccc3[nH]ncc3c2)cc(C(=O)NCc2c(F)cc(CN(C)C)cc2F)n1C [B.68],4.1
4,Cc1c(S(=O)(=O)c2ccc3[nH]nc(F)c3c2)cc(C(=O)NCc2ccccc2N2CCC(F)(F)C2)n1C [B.39],5.2
5,Cc1c(S(=O)(=O)c2ccc3[nH]ncc3c2)cc(C(=O)NCc2c(F)ccc3c2N(C)C(=O)C3)n1C [B.52],0.15
6,COCCn1c(C(=O)NCc2c(Cl)cnn2C)cc(S(=O)(=O)c2cc(Cl)c3[nH]ncc3c2)c1C [B.194],1.1
7,Cc1c(S(=O)(=O)c2ccc3[nH]nc(F)c3c2)cc(C(=O)NCc2c(F)ccc3nnn(C4CC4)c23)n1C [B.82],< 0.15
8,Cc1c(S(=O)(=O)c2ccc3[nH]ncc3c2)cc(C(=O)NCc2cccc3c(F)n[nH]c23)n1C [B.31],5.4
9,Cc1c(S(=O)(=O)c2ccc3[nH]ncc3c2)cc(C(=O)NCc2c(F)cc(CCN(C)C)cc2F)n1C [B.114],184
10,Cc1c(S(=O)(=O)c2ccc3[nH]ncc3c2)cc(C(=O)NCc2c(F)cccc2OCCN(C)C)n1C [B.78],2
11,Cc1c(S(=O)(=O)c2ccc3[nH]ncc3c2)cc(C(=O)NCc2ccnn2C)n1C [B.100],12
12,Cc1c(S(=O)(=O)c2ccc3[nH]ncc3c2)cc(C(=O)NCc2c(F)ccc3c2N(C)C(=O)C3(F)F)n1C [B.74],0.5
13,Cc1c(S(=O)(=O)c2ccc3[nH]ncc3c2)cc(C(=O)NCc2c(F)ccc3nnn(C)c23)n1C [B.43],< 0.15
14,Cc1c(S(=O)(=O)c2cccc(C#N)c2)cc(C(=O)NCc2c(Cl)cnn2C)n1C [B.183],17
15,Cc1c(S(=O)(=O)c2ccc3[nH]nc(F)c3c2)cc(C(=O)NCc2c(F)ccc3cnn(C4CC4)c23)n1C [B.46],0.53
16,Cc1c(S(=O)(=O)c2cccc(C#N)c2)cc(C(=O)NCc2c(F)ccc3cnn(C)c23)n1C [B.2],0.61
17,Cc1c(S(=O)(=O)c2cc(F)c3[nH]ncc3c2)cc(C(=O)NCc2c[nH]c(=O)c3ccccc23)n1C [B.109],0.24
18,Cc1c(S(=O)(=O)c2ccc3c(cnn3C)c2)cc(C(=O)NCc2c(F)ccnc2N2CCC(C(=O)O)C2)n1C (centres unmarked) [B.48],0.15
19,Cc1c(S(=O)(=O)c2ccc3[nH]ncc3c2)cc(C(=O)NCc2cn(C)c(=O)cn2)n1C [B.156],6

row,Structure (SMILES),IC50 [nM]
1,"Cc1c(S(=O)(=O)c2ccc3[nH]ncc3c2)cc(C(=O)N[C@H]2Cc3ccccc32)n1C (single isomer, unassigned) [B.170]",2.5
2,Cc1c(S(=O)(=O)c2ccc3[nH]ncc3c2)cc(C(=O)NCc2cc(F)cc3cn(C)nc23)n1C [B.97],11
3,Cc1c(S(=O)(=O)c2ccc3[nH]ncc3c2)cc(C(=O)NCc2c(Cl)ccc(=O)n2C)n1C [B.174],0.7
4,Cc1c(S(=O)(=O)c2ccc3[nH]ncc3c2)cc(C(=O)NCc2c(Cl)cccc2Cl)n1C [B.84],0.18
5,Cc1c(S(=O)(=O)c2ccc3[nH]nc(C#N)c3c2)cc(C(=O)NCc2cccc3cnn(C)c23)n1C [B.29],138
6,Cc1c(S(=O)(=O)c2cc(Cl)c3[nH]ncc3c2)cc(C(=O)NS(=O)(=NCC(F)(F)F)c2ccccc2)n1C (centres unmarked) [B.195],12
7,Cc1c(S(=O)(=O)c2ccc3[nH]nc(F)c3c2)cc(C(=O)NCc2cccc3c(F)nn(C4CC4)c23)n1C [B.80],1.5
8,Cc1c(S(=O)(=O)c2ccc3[nH]ncc3c2)cc(C(=O)NCc2c(F)cccc2F)n1C [B.22],0.23
9,Cc1c(S(=O)(=O)c2ccc3[nH]ncc3c2)cc(C(=O)NCc2c(F)ccn(C)c2=O)n1C [B.181],0.23
10,Cc1c(S(=O)(=O)c2ccc3[nH]ncc3c2)cc(C(=O)NCc2c(F)cnn2C)n1C [B.154],0.56
11,Cc1c(S(=O)(=O)c2ccc3[nH]ncc3c2)cc(C(=O)NC2CCc3c(F)ccc(F)c32)n1C (racemic) [B.70],0.95
12,Cc1c(S(=O)(=O)c2cc(C(F)(F)F)c3[nH]ncc3c2)cc(C(=O)NCc2c(F)ccc3nnn(C4CC4)c23)n1C [B.144],1
13,Cc1c(S(=O)(=O)c2ccc3[nH]ncc3c2)cc(C(=O)NCc2cnn3ccccc23)n1C [B.163],3
14,Cc1c(S(=O)(=O)c2ccc3c(cnn3C)c2)cc(C(=O)NCc2c(F)ccc3cnn(C4CC4)c23)n1CCCC(=O)O [B.62],< 0.15
15,Cc1c(S(=O)(=O)c2ccc3[nH]ncc3c2)cc(C(=O)NCc2[nH]c(=O)ccc2F)n1C [B.189],0.37
16,Cc1c(S(=O)(=O)c2ccc3[nH]ncc3c2)cc(C(=O)NCc2ccn(C(F)F)n2)n1C [B.160],149
17,Cc1c(S(=O)(=O)c2ccc3[nH]ncc3c2)cc(C(=O)NCc2nccc3cnn(C4CC4)c23)n1C [B.118],0.48
18,Cc1c(S(=O)(=O)c2ccc3[nH]ncc3c2)cc(C(=O)NCc2cncnc2N2CCC(F)(F)C2)n1C [B.40],0.22
19,Cc1c(S(=O)(=O)c2ccc3c(c2)CNC3)cc(C(=O)NCc2cccc3cnn(C)c23)n1C [B.10],113
